Measured values reported in patent US6143769A, “Phenylacetic acid benzylamides” (Karl Thomae GmbH, priority 1983, dated 2000).
Read-outs that look alike come from different tables or passages of the source.

Tests used:
[1] = for Maximum concentration: 2 mg tablet p.o.
Experimental: (§1) More specifically, the studies which follow were carried out on healthy male volunteers in whom the levels of glucose and active substance in the course of time were determined:
(§2) 0.25 hours after oral administration a standard breakfast (B) was eaten, 5.5 hours after administration a standard lunch (L) was eaten and 10 hours after administration a standard evening meal (D) was eaten. Blood samples were taken at different times. The glucose concentrations were determined from whole blood according to study 1. The AG-EE 623 ZW concentrations in the plasma were determined by a stereospecific competitive enzyme immunoassay (ELISA) with a detection limit of 0.5 ng/ml.
(§3) The AG-EE 623 ZW-specific ELISA used is based on polyclonal rabbit antibodies directed against AG-EE 623 ZW covalently bound to human serum albumin. The cross reaction with AG-EE 624 ZW is less than 1:100. Microtitre immunoplates were coated with these antibodies and, after washing and blocking of the plates, incubated with standard or unknown plasma samples at 4° C. for one hour with shaking. Then AG-EE 623 ZW coupled to horse-radish peroxidase was added and incubated for a further 4 hours under the same conditions. 1,2-phenylenediamine was used as substrate for photometrically quantifying the bound enzyme-coupled molecules.

[2] = Study 3: plasma concentration of active substance, single test subject; type: in vivo, human
glucose [3] = experiment: Study 4: whole blood glucose, AG-EE 623 ZW spray-dried tablets; type: in vivo, human
Text: Blood samples were taken at different times.

blood sugar = experiment: Blood sugar-lowering effect of the enantiomers in fasted female rats (oral); type: in vivo
Experimental: The substances to be investigated were suspended in 1.5% methylcellulose immediately before the start of the test and administered into the oesophagus. […] Glucose was measured in the supernatant by the hexokinase method using an analytical photometer. The statistical evaluation was carried out using the Student's t-test with p=0.05 as the limit of significance. Table 1 which follows contains the statistically significant values as percentage deviations from the control: […]

[4] = after administration of racemate
Experimental: as §1
(§4) In the interests of more precise clarification, study 5 was carried out (randomised, open, crossover). […] 2 hours after administration a standard breakfast (B) was eaten, 5 hours after administration a standard lunch (L) was eaten and 10 hours after administration a standard dinner (D) was eaten. Blood samples were taken at different times. The glucose concentrations were measured in the plasma as in study 1. […] The plasma concentrations of AG-EE 624 ZW were calculated as the difference between the two concentrations found:

glucose [5] = experiment: Study 3: whole blood glucose, single fasting test subject, crossover; type: in vivo, human
clinical [6] = conditions: human, plasma, 1 mg
Experimental: as §1, §4

rats = experiment: Acute toxicity of (S)-enantiomer, single oral dose 1000 mg/kg, rats; type: in vivo; conditions: 1000 mg/kg p.o.
clinical [7] = conditions: human, plasma, po
Experimental: as §1, §2, §3

blood glucose = experiment: Test for hypoglycemic activity in fasted female rats (oral); type: in vivo; conditions: Rattus norvegicus, po, 1 mg/kg, read-out: Change in glucose content compared with control
Experimental: Blood samples were taken immediately before the administration of the test compound and 1, 2, 3 and 4 hours afterwards, in each case from the retroorbital Venous plexus. 50 μl of each sample were deproteinated with 0.5 ml of 0.33 N perchloric acid and centrifuged. The glucose in the supernatant fluid was measured using the hexokinase method with the aid of an analytical photometer. The statistical evaluation was made using the t-test according to Student with p=0.05 as the limit of significance.

mice = experiment: Acute toxicity, single oral dose 2,000 mg/kg, mice; type: in vivo; conditions: 2,000 mg/kg p.o., 5 male and 5 female mice, 14 days

## CCOc1cc(CC(=O)N[C@@H](CC(C)C)c2ccccc2N2CCCCC2)ccc1C(=O)O [AG-EE 623 ZW, (S)(+)-2-ethoxy-4-[N-[1-(2-piperidino-phenyl)-3-methyl-1-butyl]aminocarbonylmethyl]-benzoic acid]
[1]; 0.5 mg tablet, 0 h
  Concentration (mean): 0.0 ng/mL
[1]; 0.5 mg, 4.00 h
  Concentration (mean): 0.0 ng/mL
[1]; 0.5 mg, 5.00 h
  Concentration (mean): 0.0 ng/mL
[1]; 0.5 mg, 6.00 h
  Concentration (mean): 0.0 ng/mL
[1]; 0.5 mg, 8.00 h
  Concentration (mean): 0.0 ng/mL
[1]; 0.5 mg, 10.00 h
  Concentration (mean): 0.0 ng/mL
[1]; 0.5 mg, 24.00 h
  Concentration (mean): 0.0 ng/mL
[1]; 1 mg tablet
  Time at which plasma level is below detection limit: 3.0 h
[1]; 1 mg tablet, 0 h
  Concentration (mean): 0.0 ng/mL
[1]; 1 mg, 8.00 h
  Concentration (mean): 0.0 ng/mL
[1]; 1 mg, 10.00 h
  Concentration (mean): 0.0 ng/mL
[1]; 1 mg, 24.00 h
  Concentration (mean): 0.0 ng/mL
[1]; 2 mg tablet
  Time at which plasma level is below detection limit: 4.0 h
[1]
  Maximum concentration: 50.4 ± 26.3 ng/mL
[1]; listed as 623
  Maximum concentration: 50 ± 26 ng/mL
[1]; 2 mg tablet, 0 h
  Concentration (mean): 0.0 ng/mL
[1]; 2 mg, 8.00 h
  Concentration (mean): 0.0 ng/mL
[1]; 2 mg, 10.00 h
  Concentration (mean): 0.0 ng/mL
[1]; 2 mg, 24.00 h
  Concentration (mean): 0.0 ng/mL
[1]; versus AG-EE 388 ZW, identical dose
  Fall of plasma levels (comparison): fall more rapidly towards zero than the AG-EE 388 ZW levels
[2]; 2 mg
  Maximum level relative to level after same dose of AG-EE 388 ZW: about one third
[2]; 2 mg capsule, listed as 623
  Maximum concentration: 24 ng/mL
[2]; 2 mg, 1.25 h
  Active substance concentration: 0 ng/mL
[2]; 2 mg, 2.50 h
  Active substance concentration: 0 ng/mL
[2]; 2 mg, 3.00 h
  Active substance concentration: 0 ng/mL
[2]; 2 mg, 3.50 h
  Active substance concentration: 0 ng/mL
[2]; 2 mg, 4.00 h
  Active substance concentration: 0 ng/mL
[2]; 2 mg, 6.00 h
  Active substance concentration: 0 ng/mL
[2]; 2 mg, 7.00 h
  Active substance concentration: 0 ng/mL
[2]; human, plasma, po, 2 mg, 2 mg capsule, read-out: Maximum concentration
  Cmax: 22 to 24 ng/mL
[2]; human, plasma, po, 2 mg, 1.50 h
  concentration at 1.5 h: 22 ng/mL
[2]; human, plasma, po, 2 mg, 1.75 h
  concentration at 1.75 h: 24 ng/mL
[2]; human, plasma, po, 2 mg, 2.00 h
  concentration at 2 h: 7 ng/mL
Glucose [3]; 0.5 mg tablet, 0 h
  Glucose (mean): 5.21 mmol/L
Glucose [3]; 0.5 mg, 0.25 h (breakfast)
  Glucose (mean): 5.09 mmol/L
Glucose [3]; 0.5 mg, 0.50 h
  Glucose (mean): 5.01 mmol/L
Glucose [3]; 0.5 mg, 0.75 h
  Glucose (mean): 5.85 mmol/L
Glucose [3]; 0.5 mg, 1.00 h
  Glucose (mean): 5.88 mmol/L
Glucose [3]; 0.5 mg, 1.50 h
  Glucose (mean): 4.05 mmol/L
Glucose [3]; 0.5 mg, 2.09 h (so in the source)
  Glucose (mean): 3.50 mmol/L
Glucose [3]; 0.5 mg, 3.00 h
  Glucose (mean): 3.90 mmol/L
Glucose [3]; 0.5 mg, 4.00 h
  Glucose (mean): 4.08 mmol/L
Glucose [3]; 0.5 mg, 5.00 h
  Glucose (mean): 4.32 mmol/L
Glucose [3]; 0.5 mg, 6.00 h
  Glucose (mean): 6.63 mmol/L
Glucose [3]; 0.5 mg, 8.00 h
  Glucose (mean): 5.61 mmol/L
Glucose [3]; 0.5 mg, 10.00 h (dinner)
  Glucose (mean): 4.81 mmol/L
Glucose [3]; 0.5 mg, 24.00 h
  Glucose (mean): 4.82 mmol/L
Glucose [3]; 1 mg and 2 mg tablet
  Time of peak blood sugar lowering: 1.5 h
Glucose [3]; 1 mg tablet
  Duration of blood sugar lowering: up to 2 hours
  Start of blood sugar lowering: 1.0 h
Glucose [3]; 1 mg tablet, 0 h
  Glucose (mean): 4.62 mmol/L
Glucose [3]; 1 mg, 0.25 h (breakfast)
  Glucose (mean): 4.62 mmol/L
Glucose [3]; 1 mg, 0.50 h
  Glucose (mean): 4.57 mmol/L
Glucose [3]; 1 mg, 0.75 h
  Glucose (mean): 5.36 mmol/L
Glucose [3]; 1 mg, 1.00 h
  Glucose (mean): 4.72 mmol/L
Glucose [3]; 1 mg, 1.50 h
  Glucose (mean): 2.98 mmol/L
Glucose [3]; 1 mg, 2.09 h (so in the source)
  Glucose (mean): 3.20 mmol/L
Glucose [3]; 1 mg, 3.00 h
  Glucose (mean): 3.69 mmol/L
Glucose [3]; 1 mg, 4.00 h
  Glucose (mean): 4.05 mmol/L
Glucose [3]; 1 mg, 5.00 h
  Glucose (mean): 3.94 mmol/L
Glucose [3]; 1 mg, 6.00 h
  Glucose (mean): 6.48 mmol/L
Glucose [3]; 1 mg, 8.00 h
  Glucose (mean): 5.37 mmol/L
Glucose [3]; 1 mg, 10.00 h (dinner)
  Glucose (mean): 4.57 mmol/L
Glucose [3]; 1 mg, 24.00 h
  Glucose (mean): 4.69 mmol/L
Glucose [3]; 2 mg tablet
  Duration of blood sugar lowering: ≤ 5 h
  Start of blood sugar lowering: 0.75 h
Glucose [3]; 2 mg tablet, 0 h
  Glucose (mean): 4.67 mmol/L
Glucose [3]; 2 mg, 0.25 h (breakfast)
  Glucose (mean): 5.14 mmol/L
Glucose [3]; 2 mg, 0.50 h
  Glucose (mean): 4.38 mmol/L
Glucose [3]; 2 mg, 0.75 h
  Glucose (mean): 4.54 mmol/L
Glucose [3]; 2 mg, 1.00 h
  Glucose (mean): 4.27 mmol/L
Glucose [3]; 2 mg, 1.50 h
  Glucose (mean): 2.65 mmol/L
Glucose [3]; 2 mg, 2.09 h (so in the source)
  Glucose (mean): 2.74 mmol/L
Glucose [3]; 2 mg, 3.00 h
  Glucose (mean): 3.07 mmol/L
Glucose [3]; 2 mg, 4.00 h
  Glucose (mean): 3.64 mmol/L
Glucose [3]; 2 mg, 5.00 h
  Glucose (mean): 3.88 mmol/L
Glucose [3]; 2 mg, 6.00 h
  Glucose (mean): 6.47 mmol/L
Glucose [3]; 2 mg, 8.00 h
  Glucose (mean): 4.61 mmol/L
Glucose [3]; 2 mg, 10.00 h (dinner)
  Glucose (mean): 4.45 mmol/L
Glucose [3]; 2 mg, 24.00 h
  Glucose (mean): 4.77 mmol/L
Blood sugar; 0.015 mg/kg p.o., 1 h
  Glucose, percentage deviation from control: -17 percentage deviation
Blood sugar; 0.015 mg/kg p.o., 2 h
  Glucose, percentage deviation from control: -36 percentage deviation
Blood sugar; 0.015 mg/kg p.o., 3 h
  Glucose, percentage deviation from control: -37 percentage deviation
Blood sugar; 0.015 mg/kg p.o., 4 h
  Glucose, percentage deviation from control: -32 percentage deviation
Blood sugar; 0.015 mg/kg p.o., 5 h
  Glucose, percentage deviation from control: -35 percentage deviation
Blood sugar; 0.015 mg/kg p.o., 6 h
  Glucose, percentage deviation from control: -35 percentage deviation
Blood sugar; rat
  Blood sugar-lowering effect (in words): effective enantiomer
Blood sugar; rat, 0.015 mg/kg p.o.
  Duration of effect: > 6 h
[4]
  Elimination (comparison): eliminated more rapidly than the ineffective enantiomer, AG-EE 624 ZW
Glucose [5]; 2 mg
  Maximum lowering of blood glucose: -43%
  Onset of effect: 0.5 h
  Time of maximum blood sugar reduction: 1.5 h
Glucose [5]; 2 mg capsule, 0 h
  Glucose, deviation against t = 0: 0%
Glucose [5]; 2 mg, 0.50 h
  Glucose, deviation against t = 0: -10%
Glucose [5]; 2 mg, 0.75 h
  Glucose, deviation against t = 0: -14%
Glucose [5]; 2 mg, 1.00 h
  Glucose, deviation against t = 0: -18%
Glucose [5]; 2 mg, 1.25 h
  Glucose, deviation against t = 0: -29%
Glucose [5]; 2 mg, 1.50 h
  Glucose, deviation against t = 0: -43%
Glucose [5]; 2 mg, 1.75 h
  Glucose, deviation against t = 0: -40%
Glucose [5]; 2 mg, 2.00 h
  Glucose, deviation against t = 0: -33%
Glucose [5]; 2 mg, 2.50 h
  Glucose, deviation against t = 0: -33%
Glucose [5]; 2 mg, 3.00 h
  Glucose, deviation against t = 0: -31%
Glucose [5]; 2 mg, 4.00 h
  Glucose, deviation against t = 0: -20%
Glucose [5]; 2 mg, 5.00 h
  Glucose, deviation against t = 0: -22%
Glucose [5]; 2 mg, 6.00 h
  Glucose, deviation against t = 0: -28%
Glucose [5]; 2 mg, 7.00 h
  Glucose, deviation against t = 0: -22%
Glucose [5]; 2 mg, 8.00 h
  Glucose, deviation against t = 0: -26%
Clinical [6]; iv
  MRT: 54 ± 36 min
  clearance: 443 ± 140 mL/min
Clinical [6]; po
  bioavailability: 76 ± 20%
rats
  Toxicity: virtually non-toxic
rats; 5 male and 5 female rats, 14 days
  Deaths: no animals died
Clinical [7]
  Tmax: 30 min
Clinical [7]; 0.5 mg
  AUC(0-inf): 14.3 ± 8.6 ng·h/mL
  Cmax: 15 ± 8 ng/mL
  MRT: 54 ± 12 min
  Tmax: 36 ± 6 min
  concentration at 0.25 h: 8.4 ng/mL
  concentration at 0.5 h: 4.7 ng/mL
  concentration at 0.75 h: 1.6 ng/mL
  concentration at 1 h: 7 ng/mL
  concentration at 1.5 h: 2.6 ng/mL
  concentration at 2.09 h: 1.2 ng/mL
  concentration at 3 h: 0.3 ng/mL
  half-life: 30 ± 12 min
Clinical [7]; 1 mg
  concentration at 0.25 h: 14.5 ng/mL
  concentration at 0.5 h: 27.9 ng/mL
  concentration at 0.75 h: 24.2 ng/mL
  concentration at 1 h: 15.3 ng/mL
  concentration at 1.5 h: 7.8 ng/mL
  concentration at 2.09 h: 4.7 ng/mL
  concentration at 3 h: 1.4 ng/mL
Clinical [7]; 2 mg
  concentration at 0.25 h: 24.1 ng/mL
  concentration at 0.5 h: 50.4 ng/mL
  concentration at 0.75 h: 41.1 ng/mL
  concentration at 1 h: 29.9 ng/mL
  concentration at 1.5 h: 13.5 ng/mL
  concentration at 2.09 h: 8.8 ng/mL
  concentration at 3 h: 4.3 ng/mL
  concentration at 4 h: 1.5 ng/mL
  concentration at 5 h: 0.4 ng/mL
  concentration at 6 h: 0.2 ng/mL

## CCOc1cc(CC(=O)NC(c2ccccc2)c2ccccc2N2CCCCC2)ccc1C(=O)O (stereo not drawn) [D, 2-ethoxy-4-[N-(α-phenyl-2-piperidino-benzyl)-aminocarbonylmethyl]-benzoic acid]
Blood glucose; 1 h
  change in vivo at 1 mg/kg: -42%
Blood glucose; 2 h
  change in vivo at 1 mg/kg: -54%
Blood glucose; 3 h
  change in vivo at 1 mg/kg: -37%
Blood glucose; 4 h
  change in vivo at 1 mg/kg: -34%
mice
  Deaths: only one animal in this group died
